Laboratory results taken from patent US5650430A, “Radicicol derivatives, their preparation and their anti-tumor activity” (Sankyo Company, Limited, priority 1990, dated 1997).
Where two headings read alike, the source gives them in different places.

Legend:
mouse fibrosarcoma M5076 = assay: anti-tumor effect in mice inoculated subcutaneously with M5076 fibrosarcoma; assay type: in vivo, mouse (female BDF1); conditions: M5076 s.c. in mice
Description: The test animals used were female mice, 8 weeks old, of the BDF1 strain, weighing 20-25 g. The mice were purchased from Charles River Japan Inc., Kanagawa, Japan. The mice were divided into experimental groups, each group containing 6 mice, and all mice within each group were treated identically. Each mouse was inoculated subcutaneouly with 1×10^6viable cells (the number of cells was measured by a dye exclusion method under microscopy) of the mouse fibrosarcoma M5076.
The test compounds (80 mg) listed in the following Table, except radicicol, were dissolved in 0.2 ml of N,N-dimethylacetamide (DMA) and to the solution was added 0.2 ml of 40° C.-warmed HCO60 (polyoxyethylene hydrogenated caster oil 60). Immediately thereafter 3.6 ml of 40° C.-warmed physiological saline was added to form a colloidal solution or a suspension. The final concentration of DMA and HCO60 was 5% v/v, each. Radicicol was dissolved in […] of DMA and the solution was dispersed slowly into 3.75 ml of 10% Emulphor(trade mark)-physiological saline stirred well with a stirring rod. The final concentration of DMA was 6.25%. The solution was administered intravenously (in the case of a suspension it was administered intraperitoneally) on the first, fifth and ninth days following inoculation of the fibrosarcoma cells. The period for which the mice survived and the % inhibition of tumor growth were determined. A control group was treated identically, except that no active compound was administered.
The anti-tumor effect is shown in the following Table as the increase in life span [ILS (%)] and the growth inhibition [GI (%)], calculated from the following equations [R. I. Geran et al., Cancer Chemother. Rept., 3 (1972)]:
Dt=median survival time (days) of mice in the treated group; and
Dc=median survival time (days) of mice in the control group.
In this experiment, Dc was 40-47 days.
TDt=average value of tumor sizes on the fourteenth day in the treated group; and
TDc=average value of tumor sizes on the fourteenth day in the control group tumor size=(tumor length+tumor width )/2.

various types of tumor = assay: anti-tumor activity against various types of tumor in vivo
From the text: It is believed that the relative inactivity in vivo compared to the good activity in vitro may be a result of an instability of the compound to a component of the mammalian metabolism.

[1] = tested on: tumor cells of the mouse mastocytoma P-815; conditions: cited from earlier work
fungi (anti-fungal) = conditions: in words; cited from earlier work
[2] = in words; cited from earlier work
[3] = Mus musculus, 336 h, 200 mg/kg iv on days 1, 5 and 9, tumor size on day 14, read-out: growth Inhibition (%)
[4] = Mus musculus, 200 mg/kg iv on days 1, 5 and 9, median survival vs control (Dc 40-47 days), read-out: ILS (%) (increase in life span)

SMILES | inhibition in vivo at 200 mg/kg (mouse fibrosarcoma M5076; [3]) | ILS at 200 mg/kg (mouse fibrosarcoma M5076; [4]) | other results
CCCCCCCC/C=C\CCCCCCCC(=O)Oc1cc(OC(=O)CCCCCCC/C=C\CCCCCCCC)c2c(c1Cl)CC(=O)/C=C/C=C\[C@H]1O[C@@H]1C[C@@H](C)OC2=O [72(cis), 14,16-dioleoylradicicol] | 80% | 4% | 
CCCCCCCC/C=C/CCCCCCCC(=O)Oc1cc(OC(=O)CCCCCCC/C=C/CCCCCCCC)c2c(c1Cl)CC(=O)/C=C/C=C\[C@H]1O[C@@H]1C[C@@H](C)OC2=O [72(trans), 14,16-dielaidoylradicicol] | 86% | 9% | 
CCCCCCCCCCCC(=O)Oc1cc(OC(=O)CCCCCCCCCCC)c2c(c1Cl)CC(=O)/C=C/C=C\[C@H]1O[C@@H]1C[C@@H](C)OC2=O [Compound 17, 14,16-dilauroylradicicol] | 89% | 24% | 
CCCCCCCCCCCCC(=O)Oc1cc(OC(=O)CCCCCCCCCCCC)c2c(c1Cl)CC(=O)/C=C/C=C\[C@H]1O[C@@H]1C[C@@H](C)OC2=O [Compound 19, 14,16-ditridecanoylradicicol] | 89% | 9% | 
CCCCCCCCCCCCCC(=O)Oc1cc(OC(=O)CCCCCCCCCCCCC)c2c(c1Cl)CC(=O)/C=C/C=C\[C@H]1O[C@@H]1C[C@@H](C)OC2=O [Compound 21, 14,16-dimyristoylradicicol] | 91% | 35% | 
CCCCCCCCCCCCCCC(=O)Oc1cc(OC(=O)CCCCCCCCCCCCCC)c2c(c1Cl)CC(=O)/C=C/C=C\[C@H]1O[C@@H]1C[C@@H](C)OC2=O [Compound 23, 14,16-dipentadecanoylradicicol] | 95% | 35% | 
CCCCCCCCCCCCCCCC(=O)Oc1cc(OC(=O)CCCCCCCCCCCCCCC)c2c(c1Cl)CC(=O)/C=C/C=C\[C@H]1O[C@@H]1C[C@@H](C)OC2=O [Compound 25, 14,16-dipalmitoylradicicol] | 100% | 43% | 
CCCCCCCCCCCCCCCCC(=O)Oc1cc(OC(=O)CCCCCCCCCCCCCCCC)c2c(c1Cl)CC(=O)/C=C/C=C\[C@H]1O[C@@H]1C[C@@H](C)OC2=O [Compound 28, 14,16-diheptadecanoylradicicol] | 95% | 27% | 
CCCCCCCCCCCCCCCCCC(=O)Oc1cc(OC(=O)CCCCCCCCCCCCCCCCC)c2c(c1Cl)CC(=O)/C=C/C=C\[C@H]1O[C@@H]1C[C@@H](C)OC2=O [Compound 31, 14,16-distearoylradicicol] |  |  | inhibition in vivo at 200 mg/kg (mouse fibrosarcoma M5076; Mus musculus, 336 h, 200 mg/kg ip on days 1, 5 and 9, tumor size on day 14, read-out: growth Inhibition (%)): 66%; ILS at 200 mg/kg (mouse fibrosarcoma M5076; Mus musculus, 200 mg/kg ip on days 1, 5 and 9, median survival vs control (Dc 40-47 days), read-out: ILS (%) (increase in life span)): -4%
CCCCCC/C=C\CCCCCCCC(=O)Oc1cc(OC(=O)CCCCCCC/C=C\CCCCCC)c2c(c1Cl)CC(=O)/C=C/C=C\[C@H]1O[C@@H]1C[C@@H](C)OC2=O [Compound 70, 14,16-dipalmitoleoylradicicol] | 65% | 31% | 
CC/C=C\C/C=C\C/C=C\CCCCCCCC(=O)Oc1cc(OC(=O)CCCCCCC/C=C\C/C=C\C/C=C\CC)c2c(c1Cl)CC(=O)/C=C/C=C\[C@H]1O[C@@H]1C[C@@H](C)OC2=O [Compound 76, 14,16-dilinolenoylradicicol] |  |  | ILS (%) (increase in life span) (mouse fibrosarcoma M5076; 200 mg/kg iv on days 1, 5 and 9, median survival vs control (Dc 40-47 days)): 11%; growth Inhibition (%) (mouse fibrosarcoma M5076; 200 mg/kg iv on days 1, 5 and 9, tumor size on day 14): 74%
C[C@@H]1C[C@H]2O[C@@H]2/C=C\C=C\C(=O)Cc2c(Cl)c(O)cc(O)c2C(=O)O1 [radicicol] |  |  | inhibition in vivo at 150 mg/kg (mouse fibrosarcoma M5076; Mus musculus, 336 h, 150 mg/kg iv on days 1, 5 and 9, tumor size on day 14, read-out: growth Inhibition (%)): 5%; ILS at 150 mg/kg (mouse fibrosarcoma M5076; Mus musculus, 150 mg/kg iv on days 1, 5 and 9, median survival vs control (Dc 40-47 days), read-out: ILS (%) (increase in life span)): -29%; anti-tumor activity in vivo (various types of tumor): little anti-tumor activity; inhibitory effect in vitro on the growth of tumor cells [1]: strong inhibitory effect; antibiotic activity (nature of) (fungi (anti-fungal)): strictly anti-fungal; effect on the central nervous system [2]: without having any effect on the central nervous system; tranquilizing activity [2]: relatively strong tranquilizing activity
